Reference: patent US20250368666A1, “INDAZOLE COMPOUNDS” (TYRA BIOSCIENCES, INC., priority 2022, published 2025)
Where a name gives a salt, the structure may show the parent alone.

Assays:
FGFR3 (V555M) = target: T1, FGFR3 (V555M) (Homo sapiens, UniProt P22607, V555M); experiment: Kinase binding assay (kinase-tagged T7 phage, affinity beads, qPCR), Kd; conditions: V555M mutant; read-out: FGFR3 (V555M) (Kd nM)
T1 construct: made in house; host or cells: E. coli (BL21-derived), T7 phage
Method in brief: (§1)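 Kd obtained by Levenberg–Marquardt Hill-equation fit (slope −1) to qPCR-measured kinase retained on ligand-coated streptavidin beads.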

FGFR1 = target: T2, FGFR1 (Homo sapiens, UniProt P11362); experiment: as above; conditions: read-out: FGFR1 (Kd nM)
T2 construct: made in house; host or cells: E. coli (BL21-derived), T7 phage
T2 sequence (P11362 22-822): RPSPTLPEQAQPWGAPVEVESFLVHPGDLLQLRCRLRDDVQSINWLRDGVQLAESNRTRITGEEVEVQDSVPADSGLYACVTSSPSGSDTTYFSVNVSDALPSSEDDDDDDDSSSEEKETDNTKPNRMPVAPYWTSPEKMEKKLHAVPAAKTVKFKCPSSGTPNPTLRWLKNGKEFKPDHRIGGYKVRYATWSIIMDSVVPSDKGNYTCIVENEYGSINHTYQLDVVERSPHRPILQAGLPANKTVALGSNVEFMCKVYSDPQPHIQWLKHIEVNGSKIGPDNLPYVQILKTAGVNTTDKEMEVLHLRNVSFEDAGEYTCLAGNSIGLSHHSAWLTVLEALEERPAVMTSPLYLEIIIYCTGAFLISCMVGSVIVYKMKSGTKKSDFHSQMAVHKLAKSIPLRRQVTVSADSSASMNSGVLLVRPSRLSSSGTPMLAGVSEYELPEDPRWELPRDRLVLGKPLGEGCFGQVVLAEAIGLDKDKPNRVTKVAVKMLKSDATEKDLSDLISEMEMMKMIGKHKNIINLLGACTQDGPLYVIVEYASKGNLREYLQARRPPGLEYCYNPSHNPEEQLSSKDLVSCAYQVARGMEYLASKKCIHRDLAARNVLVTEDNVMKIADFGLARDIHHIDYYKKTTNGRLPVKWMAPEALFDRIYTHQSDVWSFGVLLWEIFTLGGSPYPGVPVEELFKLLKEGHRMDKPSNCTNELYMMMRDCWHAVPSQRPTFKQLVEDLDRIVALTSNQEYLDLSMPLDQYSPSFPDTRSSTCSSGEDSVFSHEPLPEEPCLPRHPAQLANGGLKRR
Method in brief: as §1

FGFR3 = target: T3, FGFR3 (Homo sapiens, UniProt P22607); experiment: as above; conditions: read-out: FGFR3 (Kd nM)
T3 construct: made in house; host or cells: E. coli (BL21-derived), T7 phage
T3 sequence (P22607 23-806): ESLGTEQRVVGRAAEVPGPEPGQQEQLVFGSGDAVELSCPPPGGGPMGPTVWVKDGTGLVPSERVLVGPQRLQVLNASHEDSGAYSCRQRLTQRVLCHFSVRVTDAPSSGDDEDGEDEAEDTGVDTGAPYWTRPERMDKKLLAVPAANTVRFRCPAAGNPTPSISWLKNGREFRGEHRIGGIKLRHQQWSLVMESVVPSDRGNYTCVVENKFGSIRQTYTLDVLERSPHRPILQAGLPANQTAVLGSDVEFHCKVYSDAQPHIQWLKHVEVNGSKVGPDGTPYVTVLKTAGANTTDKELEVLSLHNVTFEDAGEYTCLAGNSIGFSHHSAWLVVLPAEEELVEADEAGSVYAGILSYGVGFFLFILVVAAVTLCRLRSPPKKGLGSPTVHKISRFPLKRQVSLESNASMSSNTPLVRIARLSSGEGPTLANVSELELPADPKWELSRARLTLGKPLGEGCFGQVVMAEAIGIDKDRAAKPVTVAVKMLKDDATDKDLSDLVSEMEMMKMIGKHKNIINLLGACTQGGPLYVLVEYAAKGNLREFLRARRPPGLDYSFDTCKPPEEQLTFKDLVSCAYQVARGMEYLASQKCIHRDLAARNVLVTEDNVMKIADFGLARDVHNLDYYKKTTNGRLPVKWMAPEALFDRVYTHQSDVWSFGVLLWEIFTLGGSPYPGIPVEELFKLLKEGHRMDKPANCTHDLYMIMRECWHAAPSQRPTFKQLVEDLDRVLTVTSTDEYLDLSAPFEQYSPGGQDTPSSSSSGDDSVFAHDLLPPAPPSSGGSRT
Method in brief: as §1

FGFR2 = target: T4, FGFR2 (Homo sapiens, UniProt P21802); experiment: as above; conditions: read-out: FGFR2 (Kd nM)
T4 construct: made in house; host or cells: E. coli (BL21-derived), T7 phage
T4 sequence (P21802 22-821): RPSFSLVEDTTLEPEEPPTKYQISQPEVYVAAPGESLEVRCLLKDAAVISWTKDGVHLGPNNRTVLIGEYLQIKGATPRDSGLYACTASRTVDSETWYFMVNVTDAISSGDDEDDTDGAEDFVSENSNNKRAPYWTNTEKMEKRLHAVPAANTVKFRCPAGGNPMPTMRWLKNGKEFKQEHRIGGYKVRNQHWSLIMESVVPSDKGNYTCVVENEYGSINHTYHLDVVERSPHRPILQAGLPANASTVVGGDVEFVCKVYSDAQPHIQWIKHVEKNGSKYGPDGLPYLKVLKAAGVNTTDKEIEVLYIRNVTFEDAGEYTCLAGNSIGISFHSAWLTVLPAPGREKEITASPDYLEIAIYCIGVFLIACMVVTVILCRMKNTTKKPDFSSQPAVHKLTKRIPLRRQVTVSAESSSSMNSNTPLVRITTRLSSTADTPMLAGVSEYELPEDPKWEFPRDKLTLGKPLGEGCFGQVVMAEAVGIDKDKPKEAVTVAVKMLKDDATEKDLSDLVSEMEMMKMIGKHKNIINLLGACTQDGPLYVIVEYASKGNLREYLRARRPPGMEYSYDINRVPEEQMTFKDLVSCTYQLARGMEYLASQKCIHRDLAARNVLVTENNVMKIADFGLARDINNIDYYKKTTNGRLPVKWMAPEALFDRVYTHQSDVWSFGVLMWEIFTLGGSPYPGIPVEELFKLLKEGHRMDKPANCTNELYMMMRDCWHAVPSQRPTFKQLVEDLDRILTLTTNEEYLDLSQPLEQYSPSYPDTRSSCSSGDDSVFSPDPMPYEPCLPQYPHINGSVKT
Method in brief: as §1

FGFR4 = target: T5, FGFR4 (Homo sapiens, UniProt P22455); experiment: as above; conditions: read-out: FGFR4 (Kd nM)
T5 construct: made in house; host or cells: E. coli (BL21-derived), T7 phage
T5 sequence (P22455 22-802): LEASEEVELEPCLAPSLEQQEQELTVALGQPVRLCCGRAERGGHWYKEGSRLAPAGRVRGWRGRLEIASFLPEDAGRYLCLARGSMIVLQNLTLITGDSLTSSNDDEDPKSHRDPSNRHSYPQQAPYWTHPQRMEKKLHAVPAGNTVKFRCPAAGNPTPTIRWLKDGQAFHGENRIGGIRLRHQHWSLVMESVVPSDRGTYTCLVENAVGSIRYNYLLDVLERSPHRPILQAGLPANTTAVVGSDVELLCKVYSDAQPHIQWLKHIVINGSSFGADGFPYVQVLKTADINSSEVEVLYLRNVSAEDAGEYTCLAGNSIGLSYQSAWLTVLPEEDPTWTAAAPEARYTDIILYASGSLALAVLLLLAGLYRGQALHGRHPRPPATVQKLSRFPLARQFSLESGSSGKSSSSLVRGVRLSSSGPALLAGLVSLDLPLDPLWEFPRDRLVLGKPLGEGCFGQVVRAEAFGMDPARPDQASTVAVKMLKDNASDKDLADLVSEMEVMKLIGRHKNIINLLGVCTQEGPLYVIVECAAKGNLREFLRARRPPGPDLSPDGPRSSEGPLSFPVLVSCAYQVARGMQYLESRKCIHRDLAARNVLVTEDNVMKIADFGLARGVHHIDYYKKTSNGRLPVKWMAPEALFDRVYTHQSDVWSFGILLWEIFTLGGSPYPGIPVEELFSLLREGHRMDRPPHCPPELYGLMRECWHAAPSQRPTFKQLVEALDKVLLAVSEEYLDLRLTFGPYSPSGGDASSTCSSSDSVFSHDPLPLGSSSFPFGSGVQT
Method in brief: as §1

[1] = tested on: KATO-III cell line (FGFR2 amplification); experiment: Cancer cell line cell viability assay (Cell Titer-Glo), 72 hr; type: cell-based; conditions: Homo sapiens, KATO III
Method in brief: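 5,000-20,000 cells/well o/n; cpd 9-pt 4x dil from 3 μM, n=3; 37° C/5% CO2; CTG 2.0 lumi; % DMSO ctrl; 4PL IC50.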

[2] = tested on: KG-1 cell line (FGFR 1-fusion); experiment: as above; type: cell-based; conditions: Homo sapiens, KG-1, KG-1 cell line (FGFR1-fusion)
Method in brief: (§2)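 RPMI1640/10% FBS for RT112/84 and MDA-MB-453; IMDM/20% FBS for KG-1; IMDM/10% FBS for HuH7. Cells plated overnight, dosed from 3 μM in 4-fold, 9-point series, incubated at 37° C, then lysed with Cell Titer-Glo 2.0; IC50 by sigmoidal fit.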

[3] = tested on: RT112/84 cell line (FGFR3-fusion); experiment: as above; type: cell-based; conditions: Homo sapiens, RT112/84, RT112/84 cell line (FGFR3-fusion)
Method in brief: as §2

[4] = tested on: HuH7 cell line (FGF19 amplification); experiment: Cancer cell line cell viability assay (Cell Titer-Glo), 120 hr; type: cell-based; conditions: Homo sapiens, Huh-7
From the text: Experimental Purpose: To detect the change of intracellular ATP by Cell Titer-Glo® and to evaluate the inhibitory effect of the compounds on cancer cell lines by determining the in vitro IC50 value of the compounds.
Cell Titer-Glo® 2.0 Luminescent cell viability assay reagent was purchased from Promega (Madison, WI). KG-1, KATO-III, and MDA-MB-453 cell lines were purchased from American Type Culture Collection (Manassas, VA). RT112/84 cell line was purchased from Millipore-Sigma (St. Louis, MO). HuH7 cells were purchased from Seikisui Xenotech (Kansas City, KS). RT112/84 and MDA-MB-453 cells were cultured in RPMI1640 media supplemented with 10% fetal bovine serum. KG-1 and KATO-III cell lines were cultured in IMDM media supplemented with 20% FBS. HuH7 cells were cultured in IMDM media supplemented with 10% FBS. Cultures were maintained at 37° C. in a humidified atmosphere of 5% CO2 and 95% air.
Cell Viability Assay Procedure: Cells were plated in 96-well clear bottom/white plates (Corning #3903) at a range of densities depending on the optimal assay window (5,000-20,000 cells/well in […] of media), incubated overnight. The next day, test compound DMSO stock solutions were made at 10 mM and […] final concentration. Compounds were then added to cells in a 9-dose, 4-fold dilution series starting at 3 μM with an HP 300e Digital Dispenser (each dose was applied in triplicate). DMSO was backfilled to each well up to 301 nL total volume of test compound+DMSO, and a total of 301 nL DMSO was added to a control/no test compound well in triplicate. The cells in cell culture plates were incubated with the compounds at 37° C. and 5% CO2 for 72 hours-120 hours depending on the cell line. Then 50 μl of Cell Titer Glo 2.0 reagent was added to each well of the cell culture plates. The contents were covered from light and mixed on an orbital shaker at room temperature for minimum of 10 min. Luminescence was recorded by a Clariostar Plus Microplate Reader (BMG Labtech, Cary, NC). Cells were assessed as a percentage of DMSO only treated control cells. Curves were plotted and IC50 values were calculated using the GraphPad Prism 9 program based on a sigmoidal dose-response equation (log (inhibitor) vs. response—Variable slope, 4-parameter).

T1 sequence (P22607 23-806 V555M): as the sequence (P22607 23-806) above, with V533M counted along it

Compound | Kd (FGFR3 (V555M)) [nM] | Kd (FGFR1) [nM] | Kd (FGFR3) [nM] | Kd (FGFR2) [nM] | Kd (FGFR4) [nM] | IC50 [1] [nM] | IC50 [2] [nM] | IC50 [3] [nM] | IC50 [4] [nM]
C[C@@H](Oc1ccc2[nH]nc(-c3ccc(N4CC(C)(N5CC6CC(C5)O6)C4)nc3)c2c1)c1c(Cl)cncc1Cl [Example 222, 3-(1-(5-(5-((R)-1-(3,5-dichloropyridin-4-yl)ethoxy)-1H-indazol-3-yl)pyridin-2-yl)-3-methylazetidin-3-yl)-6-oxa-3-aza-bicyclo[3.1.1]hep-tane] | 1 to 50 | 1 to 50 | 1 to 50 | 1 to 50 | 1 to 50 | 0.1 to 50 | 0.1 to 50 | 0.1 to 50 | 
C=CCNC1(C)CN(c2ccc(-c3n[nH]c4ccc(O[C@H](C)c5c(Cl)cncc5Cl)cc34)cn2)C1 [Example 232, (R)-N-ally1-1-(5-(5-(1-(3,5-dichloropyridin-4-yl)ethoxy)-1H-indazol-3-yl)pyridin-2-yl)-3-methylazetidin-3-amine] | 1 to 50 | 1 to 50 | 1 to 50 | 1 to 50 | 1 to 50 | 0.1 to 50 | 50 to 200 | 0.1 to 50 | 
COc1cc2[nH]nc(-c3cc(C#N)c(N4CC(C)(NCC5CC5)C4)nn3)c2cc1O[C@H](C)c1c(Cl)cncc1Cl [Example 347, (R)-3-(3-((cyclopropyl-methyl)amino)-3-methylazetidin-1-yl)-6-(5-(1-(3,5-dichloropyridin-4-yl)ethoxy)-6-methoxy-1H-indazol-3-yl)pyridazine-4-carbonitrile] |  | 1 to 50 | 1 to 50 | 1 to 50 | 1 to 50 |  |  |  | 0.1 to 50
CCC1(NCC2CC2)CN(c2ncc(-c3n[nH]c4cc(OC)c(O[C@H](C)c5c(Cl)cncc5Cl)cc34)cc2C#N)C1 [Example 348, (R)-2-(3-((Cyclopropylmethyl)amino)-3-ethylazetidin-1-yl)-5-(5-(1-(3,5-dichloropyridin-4-yl)ethoxy)-6-methoxy-1H-indazol-3-yl)nicotinonitrile dihydrochloride] |  | 1 to 50 | 1 to 50 | 1 to 50 | 1 to 50 |  |  |  | 0.1 to 50
COc1cc2[nH]nc(-c3cnc(N4CC(C)(NCC(C)C)C4)c(C#N)c3)c2cc1O[C@H](C)c1c(Cl)cnc(C)c1Cl [Example 355, 5-[5-[(1R)-1-(3,5-dichloro-2-methyl-4-pyridyl)ethoxy]-6-methoxy-1H-indazol-3-yl]-2-[3-(isobutylamino)-3-methyl-azetidin-1-yl]pyridine-3-carbonitrile] |  | 1 to 50 | 1 to 50 | 50 to 300 | 1 to 50 |  |  |  | 50 to 200
COc1cc2[nH]nc(-c3cnc(N4CCC(C)(NCC5CC5)CC4)c(C#N)c3)c2cc1O[C@H](C)c1c(Cl)cncc1Cl [Example 411, (R)-2-(4-((cyclo-propylmethyl)amino)-4-methylpiperidin-1-yl)-5-(5-(1-(3,5-dichloropyridin-4-yl)ethoxy)-6-methoxy-1H-indazol-3-yl)nicotinonitrile] |  |  |  |  |  |  |  |  | 0.1 to 50

Now from value to compound:

Kd (FGFR3 (V555M)) [nM] | Kd (FGFR1) [nM] | Kd (FGFR3) [nM] | Kd (FGFR2) [nM] | Kd (FGFR4) [nM] | IC50 [1] [nM] | IC50 [2] [nM] | IC50 [3] [nM] | IC50 [4] [nM] | Compound
1 to 50 | 1 to 50 | 1 to 50 | 1 to 50 | 1 to 50 | 0.1 to 50 | 50 to 200 | 0.1 to 50 |  | C[C@@H](Oc1ccc2[nH]nc(-c3cnc(N4CC(C)(N5C[C@H]6C[C@@H]5CO6)C4)c(F)c3)c2c1)c1c(Cl)cncc1Cl [Example 223, (1R,4R)-5-(1-(5-(5-((R)-1-(3,5-dichloropyridin-4-yl)ethoxy)-1H-indazol-3-yl)-3-fluoropyridin-2-yl)-3-methylazetidin-3-yl)-2-oxa-5-aza-bicyclo[2.2.1]hep-tane]
1 to 50 | 1 to 50 | 1 to 50 | 1 to 50 | 1 to 50 | 50 to 200 | 0.1 to 50 | 0.1 to 50 |  | CCNC1(C)CN(c2ncc(-c3n[nH]c4cc(OC)c(O[C@H](C)c5c(Cl)cncc5Cl)cc34)cc2C#N)C1 [Example 341, (R)-5-(5-(1-(3,5-Dichloropyridin-4-yl)ethoxy)-6-methoxy-1H-indazol-3-yl)-2-(3-(ethylamino)-3-methylazetidin-1-yl)nicotinonitrile HCl]
 | 1 to 50 | 1 to 50 | 1 to 50 | 1 to 50 |  |  |  | 50 to 200 | COc1cc2[nH]nc(-c3cc(C#N)c(N4CC(C)(NCC(C)C)C4)nn3)c2cc1O[C@H](C)c1c(Cl)cncc1Cl [Example 342, (R)-6-(5-(1-(3,5-dichloropyridin-4-yl)ethoxy)-6-methoxy-1H-indazol-3-yl)-3-(3-(isobutylamino)-3-methylazetidin-1-yl)pyridazine-4-carbonitrile]
 | 1 to 50 | 1 to 50 | 1 to 50 | 1 to 50 |  |  |  | 0.1 to 50 | COc1cc2[nH]nc(-c3cc(C#N)c(N4CC(C)(N(C)C)C4)nn3)c2cc1O[C@H](C)c1c(Cl)cncc1Cl [Example 349, (R)-6-(5-(1-(3,5-dichloropyridin-4-yl)ethoxy)-6-methoxy-1H-indazol-3-yl)-3-(3-(dimethylamino)-3-methylazetidin-1-yl)pyridazine-4-carbonitrile]
 | 50 to 300 | 1 to 50 | 1 to 50 | 1 to 50 |  |  |  | 0.1 to 50 | COc1cc2[nH]nc(-c3cnc(N4CC(CC#N)(NCC5CC5)C4)c(C#N)c3)c2cc1O[C@H](C)c1c(Cl)cnc(C)c1Cl [Example 350, (R)-2-(3-(Cyanomethyl)-3-((cyclopropyl-methyl)ami-no)azetidin-1-yl)-5-(5-(1-(3,5-dichloro-2-methylpyridin-4-yl)ethoxy)-6-methoxy-1H-indazol-3-yl)nicotinonitrile]
 | 1 to 50 | 1 to 50 | 50 to 300 | 1 to 50 |  |  |  | 0.1 to 50 | COc1cc2[nH]nc(-c3cnc(N4CC(CC#N)(N(C)C(C)C)C4)c(C#N)c3)c2cc1O[C@H](C)c1c(Cl)cncc1Cl [Example 358, (R)-2-(3-(cyanomethyl)-3-(isopropyl(methyl)-amino)azetidin-1-yl)-5-(5-(1-(3,5-dichloropyridin-4-yl)ethoxy)-6-methoxy-1H-indazol-3-yl)nicotinonitrile]
 | 1 to 50 | 1 to 50 | 1 to 50 | 1 to 50 |  |  |  | 0.1 to 50 | COc1cc2[nH]nc(-c3cnc(N4CC(N)(Cc5ccn(C)n5)C4)c(C#N)c3)c2cc1O[C@H](C)c1c(Cl)cncc1Cl [Example 366, (R)-2-(3-amino-3-((1-methyl-1H-pyrazol-3-yl)methyl)azetidin-1-yl)-5-(5-(1-(3,5-dichloropyridin-4-yl)ethoxy)-6-methoxy-1H-indazol-3-yl)nicotinonitrile]
 | 1 to 50 | 1 to 50 | 1 to 50 | 1 to 50 |  |  |  | 0.1 to 50 | COc1cc2[nH]nc(-c3cnc(N4CCC(C)(N)CC4)c(C#N)c3)c2cc1O[C@H](C)c1c(Cl)cncc1Cl [Example 368, (R)-2-(4-amino-4-methylpiperidin-1-yl)-5-(5-(1-(3,5-dichloropyridin-4-yl)ethoxy)-6-methoxy-1H-indazol-3-yl)nicotinonitrile]
